Data reported in patent US11311522B1 (Cavion, Inc., priority 2018, dated 2022).
pIC50: −log10 of the molar value. Like-named read-outs stand apart in the source and are kept apart here.

Experiments:
[1] = for Day 90 Free Margin for AUC24 at NOAEL for Dog 90-Day Toxicology / Day 90 Free Plasma AUC24 at NOAEL for Dog 90-Day Toxicology: Beagle; for Day 90 Free Plasma AUC24 at NOAEL for Dog 90-Day Toxicology: 30 mg/kg/day; for Day 90 Free Plasma AUC24 at NOAEL for Rat 90-Day Toxicology: 300 mg/kg/day
[2] = Simulated Css and total active moiety, 10 mg BID; parameters: species or system human; conditions: for Css, estimated mean / Steady-state AUC24, estimated mean: M02, CX-8998 10 mg twice daily fasted
[3] = In vitro plasma protein binding, human; type: in vitro ADME
[4] = Pharmacokinetics in rhesus monkeys; type: in vivo, rhesus monkey; conditions: male, rhesus monkey, plasma, po, 2 mg/kg; read-out: AUC24
Description: (§2) The validity and reproducibility of the assays were determined, and the precision and accuracy for calibration standards and quality control samples were examined. […] The analytes were stable in plasma under the storage and assay conditions. […] Assay performances were satisfactory and met acceptance criteria for system performance suitability, quantitation range, calibration linearity, assay accuracy and precision, and assay recovery.

[5] = In vitro plasma protein binding, dog; type: in vitro ADME
Description: (§1) CX-8998 distributes readily to the brain in rats and to brain and cerebral spinal fluid (CSF) in dogs.

[6] = biological target: T1, Cav3.3 (Homo sapiens, UniProt Q9P0X4); experiment: Cav3.3 FLIPR calcium influx assay (HEK 293 cells); type: cell-based; conditions: for pIC50: Cav3.3 FLIPR assay
T1 construct: expressed in transfected cells; host or cells: HEK 293

[7] = biological target: T2, breast cancer resistance protein (BCRP) (Homo sapiens, UniProt Q9UNQ0); experiment: BCRP transport; type: in vitro ADME; conditions: up to 30 μM
T2 sequence (Q9UNQ0 1-655): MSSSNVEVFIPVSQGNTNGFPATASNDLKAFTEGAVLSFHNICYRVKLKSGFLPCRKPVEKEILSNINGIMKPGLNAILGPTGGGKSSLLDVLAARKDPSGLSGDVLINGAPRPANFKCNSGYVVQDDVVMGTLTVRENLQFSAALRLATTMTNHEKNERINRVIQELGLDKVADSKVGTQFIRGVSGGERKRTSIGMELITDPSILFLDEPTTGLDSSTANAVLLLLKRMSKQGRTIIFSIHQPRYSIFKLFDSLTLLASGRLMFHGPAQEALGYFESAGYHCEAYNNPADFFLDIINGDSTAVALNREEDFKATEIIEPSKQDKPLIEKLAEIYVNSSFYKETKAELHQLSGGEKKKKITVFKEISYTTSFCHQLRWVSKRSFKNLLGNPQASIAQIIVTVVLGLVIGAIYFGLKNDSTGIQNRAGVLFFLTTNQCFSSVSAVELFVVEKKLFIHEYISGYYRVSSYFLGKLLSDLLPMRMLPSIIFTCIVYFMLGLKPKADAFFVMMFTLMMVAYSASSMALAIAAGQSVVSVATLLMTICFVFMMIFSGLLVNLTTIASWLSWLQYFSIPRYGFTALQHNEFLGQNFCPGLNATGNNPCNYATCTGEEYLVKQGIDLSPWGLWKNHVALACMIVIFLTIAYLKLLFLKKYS
Description: Glucuronide conjugates of the oxygenated metabolites are detected in human, monkey, and dog hepatocyte preparations. […] However, the abundance of CYP3A5, CYP2C19, and CYP2D6 in human liver microsomes is low (2%-5%) relative to the primary contributors, CYP3A4 (˜30%) and CYP2C9 (˜20%). […] Information on reproductive and developmental toxicology was obtained in a 28-day pivotal female fertility study in rats and in preliminary embryo-fetal development studies in rats and rabbits.

[8] = 4-week oral toxicology in Beagle dogs; conditions: dog, in vivo
[9] = Phase 1 single-dose pharmacokinetics (PN001, PN002/Part I, PN003, PN005); type: in vivo, human; conditions: 8 mg CX-8998
[10] = Pharmacokinetics in dogs; type: in vivo, dog; conditions: male, dog, plasma, po, 0.5 mg/kg; read-out: AUC24
Description: as §2

[11] = tested on: CYP1A2, CYP3A4, CYP2C8, CYP2C9, CYP2C19, CYP2D6, CYP2B6; experiment: CYP inhibition in human liver microsomes; type: in vitro ADME
[12] = clinical; conditions: human, plasma, oral, 8 mg
Description: Subjects will be screened for study eligibility within 28 days before administration of the first dose of study drug. Subjects who meet the study eligibility criteria will be admitted to the clinical research unit in the afternoon of the day before administration of the first dose of study drug (Period 1/Day −1).
Treatments A, B, and C will be separated by a minimum 7-day washout period. […] Administration of Treatment D may be separated from administration of Treatments A, B, and C by approximately 4 weeks to allow for analysis of the bioanalytical samples from the first 3 treatments.

[13] = in vivo; conditions: rat, po
[14] = In vitro plasma protein binding, monkey; type: in vitro ADME
Description: as §1

[15] = Crossover bioavailability study IR vs MR1 vs MR2 capsules: PK; parameters: AUC72hr: unit not given beside the values; conditions: plasma
[16] = In vitro plasma protein binding, rat; type: in vitro ADME
Description: as §1

[17] = simulated from CX-8998 10 mg BID
[18] = following a single 8 mg dose of MR1 CX-8998
[19] = following a single 8 mg dose of MR2 CX-8998

T1 sequence (Q9P0X4 whole entry, species assumed): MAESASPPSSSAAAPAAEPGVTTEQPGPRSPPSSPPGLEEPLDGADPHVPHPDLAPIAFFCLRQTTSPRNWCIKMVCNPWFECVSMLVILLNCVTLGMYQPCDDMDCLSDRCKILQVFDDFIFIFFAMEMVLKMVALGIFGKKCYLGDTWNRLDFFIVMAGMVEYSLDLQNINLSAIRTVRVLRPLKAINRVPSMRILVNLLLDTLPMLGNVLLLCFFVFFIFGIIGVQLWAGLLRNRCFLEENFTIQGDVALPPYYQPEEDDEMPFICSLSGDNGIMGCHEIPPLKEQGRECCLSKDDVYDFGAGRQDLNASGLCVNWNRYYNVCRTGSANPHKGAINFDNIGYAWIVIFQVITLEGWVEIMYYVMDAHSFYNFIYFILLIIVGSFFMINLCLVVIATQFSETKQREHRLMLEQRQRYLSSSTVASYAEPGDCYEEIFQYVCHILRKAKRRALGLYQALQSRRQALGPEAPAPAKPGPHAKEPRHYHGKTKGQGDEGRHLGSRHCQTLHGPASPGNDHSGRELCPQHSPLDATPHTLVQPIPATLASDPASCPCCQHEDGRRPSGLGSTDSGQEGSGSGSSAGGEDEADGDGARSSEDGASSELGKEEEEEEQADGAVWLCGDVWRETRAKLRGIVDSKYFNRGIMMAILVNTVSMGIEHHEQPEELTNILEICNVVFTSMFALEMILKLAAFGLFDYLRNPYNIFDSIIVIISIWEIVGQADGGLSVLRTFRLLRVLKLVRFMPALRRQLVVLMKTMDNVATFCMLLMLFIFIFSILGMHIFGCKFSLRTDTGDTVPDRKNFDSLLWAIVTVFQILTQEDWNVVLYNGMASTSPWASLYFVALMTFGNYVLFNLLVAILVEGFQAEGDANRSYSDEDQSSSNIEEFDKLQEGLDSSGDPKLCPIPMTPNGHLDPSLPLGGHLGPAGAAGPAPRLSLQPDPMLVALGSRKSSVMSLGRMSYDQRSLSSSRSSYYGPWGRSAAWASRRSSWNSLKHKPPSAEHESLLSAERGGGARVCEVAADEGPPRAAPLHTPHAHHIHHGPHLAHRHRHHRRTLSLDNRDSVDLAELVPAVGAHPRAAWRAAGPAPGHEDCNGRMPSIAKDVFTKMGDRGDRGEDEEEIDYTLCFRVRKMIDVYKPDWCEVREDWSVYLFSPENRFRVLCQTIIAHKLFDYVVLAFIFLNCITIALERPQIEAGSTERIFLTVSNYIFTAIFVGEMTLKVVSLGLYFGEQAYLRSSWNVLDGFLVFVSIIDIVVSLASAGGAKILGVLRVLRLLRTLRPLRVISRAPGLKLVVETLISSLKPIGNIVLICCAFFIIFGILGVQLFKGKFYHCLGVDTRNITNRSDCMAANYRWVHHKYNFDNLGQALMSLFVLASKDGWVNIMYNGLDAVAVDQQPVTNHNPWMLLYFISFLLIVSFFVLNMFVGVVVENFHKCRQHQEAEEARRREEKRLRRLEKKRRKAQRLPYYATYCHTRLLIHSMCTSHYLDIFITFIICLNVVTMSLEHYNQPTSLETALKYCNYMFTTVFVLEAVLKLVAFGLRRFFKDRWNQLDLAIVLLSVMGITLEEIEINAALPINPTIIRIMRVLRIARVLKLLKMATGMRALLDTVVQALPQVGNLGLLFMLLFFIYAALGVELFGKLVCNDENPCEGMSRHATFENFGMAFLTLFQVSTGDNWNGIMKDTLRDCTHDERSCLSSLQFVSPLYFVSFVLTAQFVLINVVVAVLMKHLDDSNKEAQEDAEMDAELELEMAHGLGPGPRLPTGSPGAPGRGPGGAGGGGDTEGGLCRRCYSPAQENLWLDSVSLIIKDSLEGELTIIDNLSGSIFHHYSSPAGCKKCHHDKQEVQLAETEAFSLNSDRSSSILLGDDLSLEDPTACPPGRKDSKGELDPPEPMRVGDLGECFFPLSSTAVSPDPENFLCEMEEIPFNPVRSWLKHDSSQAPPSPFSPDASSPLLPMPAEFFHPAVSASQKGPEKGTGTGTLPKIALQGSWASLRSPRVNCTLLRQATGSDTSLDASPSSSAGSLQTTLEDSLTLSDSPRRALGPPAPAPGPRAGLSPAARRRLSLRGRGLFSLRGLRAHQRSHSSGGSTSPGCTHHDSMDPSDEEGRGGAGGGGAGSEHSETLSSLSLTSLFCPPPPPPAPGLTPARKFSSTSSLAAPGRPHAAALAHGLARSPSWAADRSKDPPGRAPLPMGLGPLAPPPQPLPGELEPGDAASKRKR

C[C@@H](NC(=O)Cc1ccc(C(C)(C)O)cc1)c1ccc(OCC(F)(F)F)cn1 [M02]
Day 90 Free Margin for AUC24 at NOAEL for Rat 90-Day Toxicology ([1]; Female rats vs human 10 mg BID): 129 | Day 90 Free Margin for Cmax at NOAEL for Rat 90-Day Toxicology ([1]; Male rats vs human 10 mg BID (fed)): 117 | Day 90 Free Margin for AUC24 at NOAEL for Dog 90-Day Toxicology ([1]; female): 33 | Day 90 Free Plasma AUC24 at NOAEL for Dog 90-Day Toxicology ([1]; female): 37,620 nM · hr | Day 90 Free Plasma AUC24 at NOAEL for Rat 90-Day Toxicology ([1]; female, rat): 148,190 nM · hr | Day 90 Free Margin for AUC24 at NOAEL for Dog 90-Day Toxicology ([1]; male): 33 | Day 90 Free Plasma AUC24 at NOAEL for Dog 90-Day Toxicology ([1]; male): 38,340 nM · hr | Day 90 Free Margin for AUC24 at NOAEL for Rat 90-Day Toxicology ([1]; male, rat): 65 | Day 90 Free Plasma AUC24 at NOAEL for Rat 90-Day Toxicology ([1]; male, rat): 74,820 nM · hr | Css, estimated mean ([2]; middle-aged and elderly men): 683 nM | Steady-state AUC24, estimated mean ([2]; middle-aged and elderly men): 15.312 µM·h | Css, estimated mean ([2]; middle-aged and elderly women): 566 nM | Steady-state AUC24, estimated mean ([2]; middle-aged and elderly women): 13.584 µM·h | Css, estimated mean ([2]; young men): 343 nM | Steady-state AUC24, estimated mean ([2]; young men): 8.232 µM·h | Cu, ss_adj ([2]; adjusted for fu and potency, 10 mg BID): 10.1 nM | Cp, ss [2, 17]: 343 nM | Cu, ss [2, 17]: 48 nM | fraction unbound ([3]; human plasma, read-out: In vitro plasma protein binding (converted)): 0.14 | fraction unbound ([3]; humans, read-out: free fraction): 0.14 | AUC [4]: 36.6 µM·h | fraction unbound ([5]; dog plasma, read-out: In vitro plasma protein binding (converted)): 0.18 | fraction unbound ([5]; dogs, read-out: free fraction): 0.18 | fraction unbound ([5]; read-out: Free fraction in dog plasma): 0.18 | pIC50 ([6]; depolarized, read-out: Depolarized FLIPR potency): 7.77 | pIC50 ([6]; hyperpolarized, read-out: Hyperpolarized FLIPR potency): 5.55 | State dependence ([6]; hyperpolarized versus depolarized FLIPR potency): 166 fold | Inhibition of BCRP-mediated transport [7]: did not inhibit | Safety margin (AUC24) at the NOEL over expected clinical exposure [8]: ~23 fold | AUCinf, middle-aged and elderly female vs male subjects [9]: 11% lower | Cmax, middle-aged and elderly female vs male subjects [9]: 2% higher | AUC [10]: 7.8 µM·h | Time-dependent inhibition of CYP3A4 or CYP2B6 [11]: insignificant | AUC(0-t) [12]: 3.67 µM·h | Cmax [12]: 122 nM | AUC ([13]; female, 5 mg/kg): 16.7 µM·h | AUC ([13]; female, 15 mg/kg): 54.8 µM·h | AUC ([13]; female, 100 mg/kg): 567 µM·h | AUC ([13]; female, 300 mg/kg): 511 µM·h | AUC ([13]; male, 5 mg/kg): 12 µM·h | AUC ([13]; male, 15 mg/kg): 26.1 µM·h | AUC ([13]; male, 100 mg/kg): 186 µM·h | AUC ([13]; male, 300 mg/kg): 258 µM·h | fraction unbound [14]: 0.17 | Tmax ([15]; following a single 8 mg dose of IR CX-8998): 5 h | AUC72hr [15, 18]: 3343 | Cmax [15, 18]: 94 nM | Tmax [15, 18]: 11 h | AUC72hr [15, 19]: 3142 | Cmax [15, 19]: 73 nM | Tmax [15, 19]: 16 h | fraction unbound ([16]; rat plasma, read-out: In vitro plasma protein binding (converted)): 0.29 | fraction unbound ([16]; rats, read-out: free fraction): 0.29
